# Assay results from patent publication US20250326748A1, “COMPOUNDS AND METHODS FOR MODULATING SPLICING” (REMIX THERAPEUTICS INC., priority 2022, published 2025).
# pIC50: −log10 of the molar value. Structures can show the parent of a compound that is named as a salt. Where two headings read alike, the source gives them in different places.
# How the values were obtained:
# HiBiT-tagged MYB protein = test: HiBiT protein abundance assay, MYB (K562 HiBiT knock-in); format: cell-based, human; details: HiBiT knock-in cells, 24 hours
# Experimental: Compounds described herein were used to screen for effects on quantitative protein abundance using a HiBit assay system (Promega). Quantitative protein abundance was determined by measuring the protein levels of HiBit-tagged protein targets expressed in cell culture via luminescence using the Nano-Glo HiBiT Lytic Detection System, which uses a split complementation assay format to reconstitute NanoBiT enzyme to generate a luminescent signal. A protein abundance assay was developed such that endogenous protein targets could be modified with the HiBiT peptide tag and their abundance could be assessed after compound treatment. Briefly, K562 cell lines containing a HiBiT-modification were treated with various compounds described herein (e.g., compounds of Formulas (I), or (II)). After treatment for 24 hours, the protein abundance of a specific target was determined by measuring luminescence.
# • Promega Nano-Glo HiBiT Lytic Detection System (cat #N3030) • Corning 384-well TC-treated microplates (cat #3570)
# Cells were maintained in IMDM with 10% FBS. Before the assay, cells were diluted with […] growth media (IMDM+1% FBS media) and were seeded in a 384-well plate at a density of 10000 cells/well (for each cell line listed in Table 6). Each compound was prepared as a 10-point 3-old serial dilution in DMSO with the top dose at a final concentration of 10 μM in the well. Unmodified K562 cells were added at the previously specified density with DMSO to serve as an assay baseline and positive control (PC) and DMSO only with the respective modified cell lines was added to the negative control (NC) columns. Final DMSO concentration was kept at or below 0.25%. Treated cell plates were placed in an incubator at 37° C. with 5% CO2 for 24 hours. After 24 hours, 25 μL of Complete HiBit Lytic reagent was added to each well at room temperature (e.g. one plate requiring 10 ml Lytic Buffer, 100 μL LgBiT Protein, 200 μL Lytic Substrate), shaken for 5 minutes at 600 RPM, then left to sit for 10 minutes for signal to stabilize before reading on a Spark Cyto plate reader (Tecan) with a 500 ms measurement time.
# To determine compound effects on protein abundance of each target in Table 6, the percent response for each respective cell line was calculated at each compound concentration as follows:
# For the normalized response at each concentration, a four-parameter logistical regression was fit to the data and the response was interpolated at the 50% value to determine a concentration for protein abundance at 50% (IC50) the untreated control.
# K562 cells = test: Cell viability, Cell Titer Glo 2.0 assay, K562; details: 72 hours
# HTT mRNA = test: Splicing RT-qPCR assay, HTT canonical (CJ) and alternative (AJ) junction mRNA; format: cell-based, human; details: Homo sapiens; for pIC50: canonical junction mRNA; for AC50: alternative junction mRNA, read-out: HTT AJ (AC50, increase in AJ mRNA)
# Outline: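 A673 or K562 cells were treated for 24 h at 37 °C with an 11-point 3-fold compound dilution series (top final 10 uM, DMSO ≤0.25%). Lysates then went to one-step TaqMan RT-qPCR quantifying canonical (CJ) and alternative-exon (AJ) junction transcripts, normalized to a housekeeping gene.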
# [1] = 24 h, RT-qPCR, A673 or K562 cells, 24 hours treatment, read-out: HTT CJ (IC50, decrease in CJ mRNA)
# [2] = qPCR panel, read-out: HTT CJ (decrease in CJ mRNA levels, IC50)
# [3] = RT-qPCR, A673 or K562 cells, 24 hours treatment
pIC50 (HiBiT-tagged MYB protein),pIC50 (HTT mRNA; [1]),pIC50 (HTT mRNA; [2]),Structure (SMILES),"Effect on Cell Viability, K562 (K562 cells)",AC50 (HTT mRNA; [3]) [nM]
6.00 to 7.00,5.00 to 6.00,5.00 to 6.00,"CN[C@H]1CN(c2cnc3nc(-c4cc5cn(C)nc5c(C)c4O)ccc3c2)C[C@@H]1F (single isomer, unassigned) [Compound 131]",C (1000-9999 nM),1000 to 10000
> 7.00,5.00 to 6.00,5.00 to 6.00,CN[C@@H]1CCN(c2cnc3nc(-c4cc(C)c5nc(C)cn5n4)ccc3c2)C1 [Compound 117],B (100-1000 nM),100 to 1000
6.00 to 7.00,6.00 to 7.00,6.00 to 7.00,Cn1cc2cc(-c3ccc4cc(N5CC[C@H](NCC6CC6)C5)cnc4n3)c(O)cc2n1 [Compound 314],B (100-1000 nM),100 to 1000
> 7.00,> 7.00,> 7.00,CCN[C@@H]1CCN(c2cnc3nc(-c4cc5cn(C)nc5c(C)c4O)ccc3c2)C1 [Compound 124],A (<100 nM),< 100
> 7.00,6.00 to 7.00,6.00 to 7.00,CN[C@H]1CCN(c2cnc3nc(-c4cc5cn(C)nc5c(C)c4O)ncc3c2)C1 [Compound 120],A (<100 nM),100 to 1000
> 7.00,6.00 to 7.00,6.00 to 7.00,"Cc1c(O)c(-c2cc(Cl)c3cc(N4CCC(N(C)C)C4)cnc3n2)cc2cn(C)nc12 (stereo not drawn) [Compound 143, 5-{4-chloro-6-[3-(dimethylamino)357pyrrolidine-1-yl]-1,8-naphthyridin-2-yl}-2,7-dimethylindazol-6-ol]",B (100-1000 nM),100 to 1000
> 7.00,> 7.00,> 7.00,CN[C@H]1CCN(c2cnc3nc(-c4cc(C)c5nc(C)cn5n4)ccc3c2)C1 [Compound 116],A (<100 nM),< 100
> 7.00,> 7.00,> 7.00,CN[C@@H]1CCN(c2cnc3nc(-c4cc5cn(C)nc5c(C)c4O)ccc3c2)C1 [Compound 112],B (100-1000 nM),< 100
6.00 to 7.00,6.00 to 7.00,6.00 to 7.00,"Cn1cc2cc(-c3ccc4cc(N5CCC(NC(C)(C)C)C5)cnc4n3)c(O)cc2n1 (stereo not drawn) [Compound 134, 5-{6-[3-(tert-butylamino)pyrrolidin-1-yl]-1,8-naphthyridin-2-yl}-2-methylindazol-6-ol hydrochloride]",B (100-1000 nM),100 to 1000
> 7.00,6.00 to 7.00,6.00 to 7.00,"CN[C@H]1CN(c2cnc3nc(-c4cc5cn(C)nc5c(C)c4O)ccc3c2)C[C@@H]1C [Compound 127, 2,7-dimethyl-5-{6-[(3S,4R)-3-methyl-4-(methylamino)384pyrrolidine-1-yl]-1,8-naphthyridin-2-yl}indazol-6-ol]",A (<100 nM),100 to 1000
6.00 to 7.00,6.00 to 7.00,6.00 to 7.00,"CCN[C@H]1CCN(c2cnc3nc(-c4cc5cn(C)nc5cc4O)ccc3c2)C1 [Compound 311, 5-{6-[(3S)-3-(ethylamino)pyrrolidin-1-yl]-1,8-naphthyridin-2-yl}-2-methylindazol-6-ol hydrochloride]",B (100-1000 nM),1000 to 10000
> 7.00,> 7.00,> 7.00,"Cc1c(O)c(-c2ccc3cc(N4CCC(NCC5CC5)C4)cnc3n2)cc2cn(C)nc12 (stereo in doubt) [Compound 119, 5-{6-[(3R)-3-[(cyclopropylmethyl)amino]pyrrolidin-1-yl]-1,8-naphthyridin-2-yl}-2,7-dimethylindazol-6-ol]",A (<100 nM),100 to 1000
> 7.00,6.00 to 7.00,6.00 to 7.00,"CN[C@@H]1CN(c2cnc3nc(-c4cc5cn(C)nc5c(C)c4O)ccc3c2)C[C@@H]1F [Compound 132, 5-{6-[(3S,4R)-3-fluoro-4-(methylamino)pyrrolidin-1-yl]-1,8-naphthyridin-2-yl}-2,7-dimethylindazol-6-ol]",B (100-1000 nM),100 to 1000
> 7.00,> 7.00,> 7.00,Cc1c(O)c(-c2ccc3cc(N4CC[C@@H](NCC5CC5)C4)cnc3n2)cc2cn(C)nc12 [Compound 118],A (<100 nM),< 100
> 7.00,6.00 to 7.00,6.00 to 7.00,CCN[C@H]1CCN(c2cnc3nc(-c4cc5cn(C)nc5c(C)c4O)ccc3c2)C1 [Compound 123],,100 to 1000

# Second part, the molecule before the results:
Structure (SMILES),pIC50 (HiBiT-tagged MYB protein),pIC50 (HTT mRNA; [1]),pIC50 (HTT mRNA; [2]),"Effect on Cell Viability, K562 (K562 cells)",AC50 (HTT mRNA; [3]) [nM]
Cc1cn2cc(-c3ccc4cc(N5C[C@@H](C)N[C@@H](C)C5)cnc4n3)cc(F)c2n1 [Compound 350],6.00 to 7.00,< 5.00,< 5.00,C (1000-9999 nM),> 10000
"Cn1cc2cc(-c3cnc4nc(N5CCC(NC(C)(C)C)C5)ccc4c3)c(O)cc2n1 (stereo not drawn) [Compound 133, 5-{7-[3-(tert-butylamino)pyrrolidin-1-yl]-1,8-naphthyridin-3-yl}-2-methylindazol-6-ol]",5.00 to 6.00,5.00 to 6.00,5.00 to 6.00,D (greater than 10 μM),> 10000
Cc1c(O)c(-c2cc(Cl)c3cc(N4CCNC5(CC5)C4)cnc3n2)cc2cn(C)nc12 [Compound 381],> 7.00,6.00 to 7.00,6.00 to 7.00,B (100-1000 nM),100 to 1000
Cc1c(O)c(-c2cc(Cl)c3cc(N(C)[C@H]4CCNC4)cnc3n2)cc2cn(C)nc12 [Compound 294],6.00 to 7.00,6.00 to 7.00,6.00 to 7.00,B (100-1000 nM),1000 to 10000
Cc1cn2nc(-c3cc(Cl)c4cc(N5CCC(N(C)C)CC5)cnc4n3)cc(C)c2n1 [Compound 348],> 7.00,6.00 to 7.00,6.00 to 7.00,B (100-1000 nM),100 to 1000
C[C@H]1CN(c2cnc3nc(-c4cc5cn(C)nc5c(F)c4O)cc(Cl)c3c2)C[C@H](C)N1 [Compound 280],> 7.00,> 7.00,> 7.00,A (<100 nM),< 100
"Cc1cn2cc(-c3cc(Cl)c4cc(N5CCNCC5)cnc4n3)cc(F)c2n1 [Compound 153, 4-chloro-2-{8-fluoro-2-methylimidazo[1,2-a]pyridin-6-yl}-6-(piperazin-1-yl)-1,8-naphthyridine]",6.00 to 7.00,6.00 to 7.00,6.00 to 7.00,B (100-1000 nM),1000 to 10000
Cc1cn2cc(-c3cc(Cl)c4cc(N5C[C@H](C)N[C@@H](C)C5)cnc4n3)cc(F)c2n1 [Compound 298],> 7.00,6.00 to 7.00,6.00 to 7.00,B (100-1000 nM),100 to 1000
"Cc1cc(-c2cc3cn(C)nc3c(C)c2O)nc2ncc(N3CCNCC3)cc12 [Compound 151, 2,7-dimethyl-5-[4-methyl-6-(piperazin-1-yl)-1,8-naphthyridin-2-yl]indazol-6-ol]",> 7.00,6.00 to 7.00,6.00 to 7.00,,100 to 1000
"Cc1c(O)c(-c2cc(C3CC3)c3cc(N4CCNCC4)cnc3n2)cc2cn(C)nc12 [Compound 144, 5-(4-cyclopropyl-6-(piperazin-1-yl)-1,8-naphthyridin-2-yl)-2,7-dimethyl-2H-indazol-6-ol bis(2,2,2-trifluoroacetate)]",> 7.00,6.00 to 7.00,6.00 to 7.00,,100 to 1000
CN(c1cnc2nc(-c3cc4cn(C)nc4c(F)c3O)ccc2c1)C1CCNCC1 [Compound 284],6.00 to 7.00,5.00 to 6.00,5.00 to 6.00,,1000 to 10000
